Results taken from patent US11261232B2, “TNFRSF14 / HVEM proteins and methods of use thereof” (MEMORIAL SLOAN KETTERING CANCER CENTER, priority 2015, dated 2022).

Experiments:
[1] = system: mouse lymphoma lines (BCL1 and Myc/Bc12); assay: qRT-PCR of TNF family cytokines in mouse lymphoma lines; assay type: cell-based; details: solHVEM 10 μg/ml; BCL1 and Myc/Bcl2 lines; 24 hrs
From the text: FIG. 5A-I. Abnormal activation of the lymphoid stroma in B-cell lymphomas. FIG. 5A, Immunohistofluorescence staining for the FDC marker CD21/35 and the FRC marker Collagen 1 on control lymphomas (vector) and HVEM knockdown lymphomas (shHVEM) (n=3 for each, scale bars=100 μm); FIG. 5B and FIG. 5C, Systematic quantification of CD21/35 (left) and collagen I (right) staining in control (Vector) and HVEM deficient (shHVEM) lymphomas based on 12 areas in the T-cell zone and 30 areas in the B-cell zone per mice (cumulative number for 3 mice), respectively; ** p<0.01; *** p<0.001 by parametric t-test; FIG. 5D and FIG. 5E, CXCL13 (FIG. 5D) and CCL19 (FIG. 5E) expression by qRT-PCR on control (vector) and HVEM knockdown (shHVEM) lymphomas (mean of four replicates, error bars indicate standard deviation, * p<0.01); FIG. 5F, qRT-PCR measurement of the LTa, LTb, and TNFa mRNA expression in B cells isolated from the spleens of vector and shHVEM mice (n=3); FIG. 5G-I, qRT-PCR measurement of TNFa (FIG. 5G), LTa (FIG. 5H), and LTb (FIG. 5I) in B cell line BCL1 after 24 hrs of treatment with solHVEM (10 μg/ml).
FIG. 12A-F. Analysis of the lymphoid stroma in B cell lymphomas. FIG. 12A, Immunohistofluorescence staining of CD20pos B cells, Transglutaminasepos FRCs, and CD21Lpos FDCs in reactive lymph nodes and two separate human follicular lymphoma tissue specimens; FIG. 12B, Flowchart of the image processing for FRC density (Collagen I); briefly, images were thresholded and transformed to binaries images, then a watershed algorithm was applied and number of polygons evaluated and analyzed by ImageJ software; FIG. 12C, Number of polygons indicates FRC density in control lymphomas (vector) and HVEM knockdown lymphomas showing no difference in FRC contribution. 40 areas were selected in the T cell zone and analyzed per mice (n=3 per each group); FIG. 12D-F, qRT-PCR measurement of TNFa (FIG. 12D), LTa (FIG. 12E), and LTb (FIG. 12F) in mouse B-cell line EuMyc-Bc12. […]

[2] = system: cell lines that expressed high levels of BTLA; assay: Immunoblot of ERK phosphorylation in treated cell lines; assay type: cell-based; details: 5 ug/ml; cell lines with high BTLA
Method: FIG. 19. In vitro effect of sTNFRSF14. Immunoblots of cell lines that were treated with 5 ug/ml of sTNFRSF14. Blots were probed as indicated.
Immunoblots were performed using whole cell lysates or supernatants as previously described (Wendel et al., 2004). In brief, 30 μg protein/sample was resolved on SDS-PAGE gels and transferred to Immobilon-P membranes (Millipore). Antibodies were against, pSyk (Cell Signaling Technologies #2712), Syk (Cell Signaling Technologies #2710), pBTK (Cell Signaling Technologies #5082), BTK (Cell Signaling Technologies #3533) pERK (Cell Signaling Technologies #9102), ERK (Cell Signaling Technologies #4370) and Tubulin (Sigma-Aldrich). Enhanced chemiluminescence was used for detection (ECL; GE Healthcare).

Molecule	expression of LTa [1]	expression of LTb [1]	expression of TNFa [1]	ERK phosphorylation levels [2]
solHVEM: Leu39-Val202 soluble HVEM ectodomain polypeptide of SEQ ID NO. 8	readily decreased	readily decreased	did not reduce	–
sTNFRSF14: Pro37-Val202 soluble HVEM ectodomain polypeptide of SEQ ID NO. 6 (protein, listed as Homo sapiens) PALPSCKEDEYPVGSECCPKCSPGYRVKEACGELTGTVCEPCPPGTYIAHLNGLSKCLQCQMCDPAMGLRASRNCSRTENAVCGCSPGHFCIVQDGDHCAACRAYATSSPGQRVQKGGTESQDTLCQNCPPGTFSPNGTLEECQHQTKCSWLVTKAGAGTSSSHWV	–	–	–	clearly reduced
